Consider 2 substances from US8394742B2, “Methods, compounds and compositions with genotype selective anticancer activity” (The Translation Genomics Research Institute, priority 2005, dated 2013).

Assay [1] relates to DPC4. In words: DPC4 suppression in HPDE6 clones after retrovirus infection (Western blot). It counts as cell-based, human. From the text: Because of its high suppression ability in transient transfections, the construct pMSCVpuroH_DPC4_oligo4 was chosen to generate a cell line with stable DPC4 suppression from HPDE6. To verify the specificity of Oligo4, Applicants created a construct with a mutated Oligo4, Oligo4mut10. The only difference between the two oligos is that the nucleotide residue at position 10 was changed from cytosine in Oligo4 to adenine in Oligo4mut10 (FIG. 11A). After retrovirus infection, HPDE6 cells were selected with puromycin at 3 μg/ml. Individual clones were isolated using serial dilution of the cells in 96-well plates. Ten individual clones for each construct were picked and tested for DPC4 expression at protein level by Western blot.
Eight passages after the infection, the expression of DPC4 in this clone was still 90% inhibited compared to the HPDE6 cells transfected with the empty vector (HPDE6-vector). This new cell line, which was named HPDE6-siDPC4, along with HPDE6-vector forms a set of isogenic cell lines for the DPC4 gene.
In general terms: In western blotting, separated proteins are transferred to a membrane and probed.

The subject of assay [2] is DPC4. In words: DPC4 suppression by siRNA expression constructs, transient transfection. It counts as cell-based, human. Particulars: MiaPaCa-2 (wild-type DPC4), 24 hours after transfection. From the text:
The pMSCVproH vector was first used to create 6 DPC4 siRNA expression constructs, each of which targets a different region of the DPC4 transcript. Each of the oligonucleotide sequences was designed based on the criteria described by Tuschl and co-workers (65) and blasted against the GenBank database to confirm their specificity for DPC4.
Applicants first tested the ability of these constructs in suppressing DPC4 expression by performing transient transfections. Each construct was transiently transfected into the pancreatic cancer cell line MiaPaCa-2 (wild-type DPC4) using the Lipofectin Reagent (Invitrogen). DPC4 expression was examined 24 hours after transfection.

For the substance 5′GTAGGACTGCACCATACAC 3′ [Oligo4], in assay [1] (HPDE6 clone (HPDE6-siDPC4), eight passages after infection, vs HPDE6-vector), the “expression of DPC4 inhibited” value came to 90%. Besides, the DPC4 suppression entry in assay [1] (HPDE6 individual clones, six out of 10, protein level by Western blot) was “about 90%”; in assay [2] it was “about 90%”.
With 5′AGCAAGGTTGCACATAGGC 3′ [Olig6], in assay [2], the DPC4 suppression entry is “about 80%”.
